These compounds were tested against ALS enzyme extracted from Mutant 6 (heterozygous) (assay: ALS enzyme assay, heterozygous Mutant 6). Conditions: ALS of heterozygous Mutant 6; read-out: ID50% (the source's name).
Type: biochemical, Zea mays
Experimental: (§1) Seeds of generation M₁BC₁ M₁BC₂ of the nine mutants were sprayed pre-emergence with the herbicide imazethapyr (PURSUIT) (Trade Mark) at a rate of 250 g/ha and grown in a growth chamber (16 hour day, 27°C; 8 hour night, 17°C). Plants were harvested after 11 days.
(§2) Four grams of leaf material were harvested from just above the first leaf axis and ground in a mortar and pestle in 20ml of a solution containing 40mM Tricine (Trade Mark), 10mM EDTA, 5mM pyruvate, 80 »M flavin adenine dinucleotide (FAD), 1mM dithiothreitol (DTT), pH 8, plus 0.8g Polyclar AT. The homogenate was pressed through four layers of muslin and centrifuged at 30,000g for 20 minutes.
(§3) The supernatant was brought to 65% saturation with ammonium sulphate, left to precipitate for 30 minutes and then centrifuged at 30.000g for 20 minutes. The pellet was resuspended in 2.5ml of 40mM Tricine, 10mM EDTA, 5mM pyruvate, 80»M FAD, 25% (v/v) glycerol, 1mM DTT, pH 8, and desalted into 3.5ml of 40mM Tricine, 10mM EDTA, 25% (v/v) glycerol, 1mM DTT, pH 8.
(§4) One hundred microlitres of the enzyme extract was used for each assay. Final reagent concentrations were: 120mM Tricine, 50mM pyruvate, 10mM MgCl₂, […], 93»M thiamine pyrophosphate (TPP), pH 8, in the presence or absence of a herbicide of interest, in a volume of 750 »l. Incubations were carried out at 37°C for 30 minutes. Reactions were stopped with 250»l of 1.84M sulphuric acid, and decarboxylation of the acetolactate carried out at 37°C for 75 minutes, or at 60°C for 30 minutes. Assay blanks had sulphuric acid added prior to the enzyme extract. To the samples and blanks 650»l of α-naphthol in 2.73M NaOH/0.16%(w/v) creatine were added followed by incubation at 37°C for 30 minutes. After centrifugation at 30,000g the optical density of the supernatant was read at 540nm.
(§5) The assay procedure described was carried out on ALS enzyme extracted from each of the nine mutants for the following herbicides: imazethapyr (PURSUIT) imazapyr (ARSENAL) imazaquin (SCEPTER) chlorsulfuron (GLEAN) chlorimuron (CLASSIC) […] (HARMONY) The enzyme activity graphs are given as Figures 3 to 8. In addition, homozygous lines of mutants 1 and 2 which were selected from generation M₁BC₁S₂, were also tested against the same group of herbicides and against representatives of the triazolopyrimidines and phenoxypyrimidines. The chemical structures of these herbicides are shown in Figure 2 of the accompanying drawings.
(§6) From the enzyme assay data it is possible to derive, as a measure of the degree of inhibition the factor ID50% for each mutant and for each herbicide. This factor is indicative of the herbicide concentration which gives 50% inhibition of the ALS activity in comparison with the wild-type control. It is also possible to derive the fold increase in resistance.

Structure (SMILES) | IC50 [nM]
COc1cc(Cl)nc(NC(=O)NS(=O)(=O)c2ccccc2C(=O)O)n1 [Chlorimuron, chlorimuron] | 15
COc1nc(C)nc(NC(=O)NS(=O)(=O)c2ccccc2Cl)n1 [Chlorsulfuron, chlorsulfuron] | 65

Same assay, conditions: Mutant 6; groups Strong, Intermediate, Weak, Zero

Structure (SMILES) | resistance group, Enzyme Assay
COc1cc(Cl)nc(NC(=O)NS(=O)(=O)c2ccccc2C(=O)O)n1 [Chlorimuron, chlorimuron] | Weak
COc1nc(C)nc(NC(=O)NS(=O)(=O)c2ccccc2Cl)n1 [Chlorsulfuron, chlorsulfuron] | Weak

Same assay, conditions: fold increase in resistance vs wild type, heterozygous Mutant 6; 30 min

Structure (SMILES) | Fold Increase
COc1cc(Cl)nc(NC(=O)NS(=O)(=O)c2ccccc2C(=O)O)n1 [Chlorimuron, chlorimuron] | 4
COc1nc(C)nc(NC(=O)NS(=O)(=O)c2ccccc2Cl)n1 [Chlorsulfuron, chlorsulfuron] | 4

The compounds below were run against ALS enzyme extracted from Mutant 7 (heterozygous) (assay: ALS enzyme assay, heterozygous Mutant 7). Conditions: ALS of heterozygous Mutant 7; read-out: ID50% (the source's name).
Type: biochemical, Zea mays
Experimental: as §1, §2, §3, §4, §5, §6

Structure (SMILES) | IC50 [nM]
COc1cc(Cl)nc(NC(=O)NS(=O)(=O)c2ccccc2C(=O)O)n1 [Chlorimuron, chlorimuron] | 5
COc1nc(C)nc(NC(=O)NS(=O)(=O)c2ccccc2Cl)n1 [Chlorsulfuron, chlorsulfuron] | 8

Same assay, conditions: Mutant 7; groups Strong, Intermediate, Weak, Zero

Structure (SMILES) | resistance group, Enzyme Assay
COc1cc(Cl)nc(NC(=O)NS(=O)(=O)c2ccccc2C(=O)O)n1 [Chlorimuron, chlorimuron] | Weak
COc1nc(C)nc(NC(=O)NS(=O)(=O)c2ccccc2Cl)n1 [Chlorsulfuron, chlorsulfuron] | Zero

Same assay, conditions: fold increase in resistance vs wild type, heterozygous Mutant 7; 30 min

Structure (SMILES) | Fold Increase
COc1cc(Cl)nc(NC(=O)NS(=O)(=O)c2ccccc2C(=O)O)n1 [Chlorimuron, chlorimuron] | 1
COc1nc(C)nc(NC(=O)NS(=O)(=O)c2ccccc2Cl)n1 [Chlorsulfuron, chlorsulfuron] | 1

These compounds were tested against ALS enzyme extracted from Mutant 9 (heterozygous) (assay: ALS enzyme assay, heterozygous Mutant 9). Conditions: ALS of heterozygous Mutant 9; read-out: ID50% (the source's name).
Type: biochemical, Zea mays
Experimental: as §1, §2, §3, §4, §5, §6

Structure (SMILES) | IC50 [nM]
COc1nc(C)nc(NC(=O)NS(=O)(=O)c2ccccc2Cl)n1 [Chlorsulfuron, chlorsulfuron] | 50

Same assay, conditions: Mutant 9; groups Strong, Intermediate, Weak, Zero

Structure (SMILES) | resistance group, Enzyme Assay
COc1cc(Cl)nc(NC(=O)NS(=O)(=O)c2ccccc2C(=O)O)n1 [Chlorimuron, chlorimuron] | Weak
COc1nc(C)nc(NC(=O)NS(=O)(=O)c2ccccc2Cl)n1 [Chlorsulfuron, chlorsulfuron] | Weak

Same assay, conditions: fold increase in resistance vs wild type, heterozygous Mutant 9; 30 min

Structure (SMILES) | Fold Increase
COc1cc(Cl)nc(NC(=O)NS(=O)(=O)c2ccccc2C(=O)O)n1 [Chlorimuron, chlorimuron] | 3
COc1nc(C)nc(NC(=O)NS(=O)(=O)c2ccccc2Cl)n1 [Chlorsulfuron, chlorsulfuron] | 3

The compounds below were run against ALS enzyme extracted from Mutant 10 (heterozygous) (assay: ALS enzyme assay, heterozygous Mutant 10). Conditions: ALS of heterozygous Mutant 10; read-out: ID50% (the source's name).
Type: biochemical, Zea mays
Experimental: as §1, §2, §3, §4, §5, §6

Structure (SMILES) | IC50 [nM]
COc1cc(Cl)nc(NC(=O)NS(=O)(=O)c2ccccc2C(=O)O)n1 [Chlorimuron, chlorimuron] | 17
COc1nc(C)nc(NC(=O)NS(=O)(=O)c2ccccc2Cl)n1 [Chlorsulfuron, chlorsulfuron] | 35

Same assay, conditions: Mutant 10; groups Strong, Intermediate, Weak, Zero

Structure (SMILES) | resistance group, Enzyme Assay
COc1cc(Cl)nc(NC(=O)NS(=O)(=O)c2ccccc2C(=O)O)n1 [Chlorimuron, chlorimuron] | Intermediate
COc1nc(C)nc(NC(=O)NS(=O)(=O)c2ccccc2Cl)n1 [Chlorsulfuron, chlorsulfuron] | Weak

Same assay, conditions: fold increase in resistance vs wild type, heterozygous Mutant 10; 30 min

Structure (SMILES) | Fold Increase
COc1cc(Cl)nc(NC(=O)NS(=O)(=O)c2ccccc2C(=O)O)n1 [Chlorimuron, chlorimuron] | 5
COc1nc(C)nc(NC(=O)NS(=O)(=O)c2ccccc2Cl)n1 [Chlorsulfuron, chlorsulfuron] | 2

These compounds were tested on Mutant 1 plants (assay: Cross-resistance testing (glasshouse dose response), Mutant 1). Conditions: pre-emergence spray, assessed after four weeks growth.
Type: in vivo, Zea mays
Excerpt: (§7) The seeds used in this screen were populations of mixed tolerant and sensitive seed, segregating 1:1, derived from each of the heterogygous, tolerant mutants crossed with homozygous, sensitive UE95. All of the tolerant progeny are heterozygous for tolerance. Each of the mutants identified above were used except mutant 4. The controls were seed of self-pollinated UE95 which was pollinated in the same year as the tolerant lines.
(§8) One litre of compost was placed in each seed tray of dimensions 19cm x 11cm x 5cm deep and firmed down flat. Two furrows 1 cm deep were drawn in the surface of the compost in each tray and six seeds were sown in each furrow (total twelve seeds per tray). Some trays were sown with 24 seeds, in which case three furrows were made and 8 seeds sown per furrow.
(§9) In each test each tray contained either the seed of one mutant or of the UE95 control for each herbicide application rate and for the untreated control.
(§10) Five different types of ALS-inhibitor herbicides were tested on the mutants plus imazethapyr (PURSUIT) as a comparison. Four rates of each were applied; approximately 0.1x, 0.5x, 1x and 4x the estimated field rates for each herbicide. The rates are the same for mutant 3 to 10 but higher rates for chlorimuron (CLASSIC) and lower rates for chlorsulfuron (GLEAN) were applied to mutants 1 and 2.
(§11) The rates of application used in the screening tests were as follows: chlorimuron (CLASSIC) 4,20,40,160 g/Ha (mutants 1 and 2); and, 8,40,80,320 g/Ha (mutants 3 to 10); chlorsulfuron (GLEAN) 5,25,50,200 g/Ha (mutants 1 and 2); and, 1,5,10,40 g/Ha (mutants 3 to 10); imazaquin (SCEPTER) 30,150,300,1200 g/Ha; triazolopyrimidine 5,25,50,200 g/Ha; phenoxypyrimidine 10,50,100,400 g/Ha; and, imazethapyr (PURSUIT) 30,150,300,1200 g/Ha The triazolopyrimidine and phenoxypyrimidine were formulated in an adjuvant wetting agent known as JF5969 and diluted with water to make a final concentration of 10% JF5969. The remaining compounds were diluted with water only.
(§12) The spray jet and parameters were as decribed above under "SCREENING". After spraying, the seeds were covered with 0.5 litre of compost and firmed down flat (2.5cm covering) and grown under the conditions described under "SCREENING" above.
(§13) Visual assessments were made of the plants after four weeks growth. Each plant was scored on a scale of zero to 5 and the height measured from soil surface to the tallest leaf tip. The scoring scale was as follows: 0 - 0 to 10% damage (little or no herbicidal effect) 1 - 11 to 25% damage 2 - 26 to 50% damage 3 - 51 to […] 4 - 81 to 95% damage 5 - 96 to 100% damage (complete death of the plant) In carrying out these assessments, plants which were obviously of the sensitive phenotype were ignored (approximately 50% of the plants). […]

Structure (SMILES) | resistance group, Dose Response
COc1cc(Cl)nc(NC(=O)NS(=O)(=O)c2ccccc2C(=O)O)n1 [Chlorimuron, chlorimuron] | Zero
COc1nc(C)nc(NC(=O)NS(=O)(=O)c2ccccc2Cl)n1 [Chlorsulfuron, chlorsulfuron] | Zero

Each compound was assayed on Mutant 7 plants (assay: Cross-resistance testing (glasshouse dose response), Mutant 7). Conditions: pre-emergence spray, assessed after four weeks growth.
Type: in vivo, Zea mays
Excerpt: as §7, §8, §9, §10, §11, §12, §13

Structure (SMILES) | resistance group, Dose Response
COc1cc(Cl)nc(NC(=O)NS(=O)(=O)c2ccccc2C(=O)O)n1 [Chlorimuron, chlorimuron] | Zero
COc1nc(C)nc(NC(=O)NS(=O)(=O)c2ccccc2Cl)n1 [Chlorsulfuron, chlorsulfuron] | Weak

These compounds were tested on Mutant 8 plants (assay: Cross-resistance testing (glasshouse dose response), Mutant 8). Conditions: pre-emergence spray, assessed after four weeks growth.
Type: in vivo, Zea mays
Excerpt: as §7, §8, §9, §10, §11, §12, §13

Structure (SMILES) | resistance group, Dose Response
COc1cc(Cl)nc(NC(=O)NS(=O)(=O)c2ccccc2C(=O)O)n1 [Chlorimuron, chlorimuron] | Zero
COc1nc(C)nc(NC(=O)NS(=O)(=O)c2ccccc2Cl)n1 [Chlorsulfuron, chlorsulfuron] | Zero

Reference: patent EP0472573B1, “HERBICIDE RESISTANT MAIZE” (ZENECA LIMITED, priority 1989, dated 1990)
